We go through 21 compounds from patent publication US11713338B2, “Cyclic peptides multimers targeting α-4-β-7 integrin” (priority 2016, dated 2023).

Broadly, the IC50 is the concentration at which inhibition is half-maximal.

Assay [1] concerns the target T1, recombinant integrin α4β7 (Homo sapiens, UniProt P13612+P26010, DEL724-798).
T1 construct: purchased R&D Systems 5397-A3-050
T1 sequence (P13612 34-970 limits assumed): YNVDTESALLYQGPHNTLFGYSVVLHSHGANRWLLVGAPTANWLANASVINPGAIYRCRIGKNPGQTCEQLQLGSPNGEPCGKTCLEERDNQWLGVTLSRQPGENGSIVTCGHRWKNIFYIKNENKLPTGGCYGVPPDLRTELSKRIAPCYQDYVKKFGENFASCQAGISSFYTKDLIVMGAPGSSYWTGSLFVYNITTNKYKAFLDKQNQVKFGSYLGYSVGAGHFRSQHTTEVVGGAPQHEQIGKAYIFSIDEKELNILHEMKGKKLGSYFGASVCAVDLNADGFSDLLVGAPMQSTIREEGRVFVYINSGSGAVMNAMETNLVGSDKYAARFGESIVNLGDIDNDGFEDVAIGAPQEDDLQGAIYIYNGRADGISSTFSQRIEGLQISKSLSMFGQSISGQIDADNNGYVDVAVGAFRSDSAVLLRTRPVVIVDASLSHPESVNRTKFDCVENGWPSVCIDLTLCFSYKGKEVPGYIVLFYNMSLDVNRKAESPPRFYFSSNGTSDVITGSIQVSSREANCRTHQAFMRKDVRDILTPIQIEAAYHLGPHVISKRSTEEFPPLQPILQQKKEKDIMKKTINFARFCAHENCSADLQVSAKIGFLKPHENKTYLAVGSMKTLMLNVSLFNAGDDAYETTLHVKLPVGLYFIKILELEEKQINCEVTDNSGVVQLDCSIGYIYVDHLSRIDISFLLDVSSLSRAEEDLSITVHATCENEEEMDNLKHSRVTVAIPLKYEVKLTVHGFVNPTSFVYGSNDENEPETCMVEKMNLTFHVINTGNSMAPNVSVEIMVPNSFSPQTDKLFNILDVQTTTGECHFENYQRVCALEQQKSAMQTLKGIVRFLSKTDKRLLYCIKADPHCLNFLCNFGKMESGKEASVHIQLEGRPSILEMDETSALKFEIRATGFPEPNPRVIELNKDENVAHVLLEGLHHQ
T1 sequence (P26010 20-723 limits assumed): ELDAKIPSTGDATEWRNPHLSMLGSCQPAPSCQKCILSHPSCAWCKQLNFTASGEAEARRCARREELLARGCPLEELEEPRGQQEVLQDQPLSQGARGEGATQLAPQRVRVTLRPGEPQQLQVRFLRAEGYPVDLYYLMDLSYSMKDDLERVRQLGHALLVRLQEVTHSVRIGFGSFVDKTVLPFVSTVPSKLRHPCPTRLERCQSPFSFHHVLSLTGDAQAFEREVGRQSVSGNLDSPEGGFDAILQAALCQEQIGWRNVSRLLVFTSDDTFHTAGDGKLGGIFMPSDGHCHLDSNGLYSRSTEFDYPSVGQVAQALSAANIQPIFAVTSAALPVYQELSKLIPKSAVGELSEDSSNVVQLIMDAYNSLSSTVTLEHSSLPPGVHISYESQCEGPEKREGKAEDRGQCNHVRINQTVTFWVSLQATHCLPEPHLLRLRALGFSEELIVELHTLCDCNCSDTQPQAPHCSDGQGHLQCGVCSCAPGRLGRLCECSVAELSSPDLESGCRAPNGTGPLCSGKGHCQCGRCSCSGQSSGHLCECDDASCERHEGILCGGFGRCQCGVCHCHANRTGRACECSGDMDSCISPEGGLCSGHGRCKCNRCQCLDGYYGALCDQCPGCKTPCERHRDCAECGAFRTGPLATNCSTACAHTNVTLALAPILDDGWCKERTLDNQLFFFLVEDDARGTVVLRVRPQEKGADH
As to the kind of experiment: Integrin α4β7—MAdCAM-1 ELISA competition assay. The assay is classed as binding. Particulars: for ELISA Assay Ratio b1/b7: ratio of a4b1 to a4b7 ELISA IC50; for IC50: read-out: ELISA a4b7 Assay IC50.

For assay [2], the target named is T2, recombinant integrin α4β1 (Homo sapiens, UniProt P05556+P13612).
T2 construct: purchased R&D Systems 5397-A3-050
T2 sequence (P05556 21-728 limits assumed, one chain of several): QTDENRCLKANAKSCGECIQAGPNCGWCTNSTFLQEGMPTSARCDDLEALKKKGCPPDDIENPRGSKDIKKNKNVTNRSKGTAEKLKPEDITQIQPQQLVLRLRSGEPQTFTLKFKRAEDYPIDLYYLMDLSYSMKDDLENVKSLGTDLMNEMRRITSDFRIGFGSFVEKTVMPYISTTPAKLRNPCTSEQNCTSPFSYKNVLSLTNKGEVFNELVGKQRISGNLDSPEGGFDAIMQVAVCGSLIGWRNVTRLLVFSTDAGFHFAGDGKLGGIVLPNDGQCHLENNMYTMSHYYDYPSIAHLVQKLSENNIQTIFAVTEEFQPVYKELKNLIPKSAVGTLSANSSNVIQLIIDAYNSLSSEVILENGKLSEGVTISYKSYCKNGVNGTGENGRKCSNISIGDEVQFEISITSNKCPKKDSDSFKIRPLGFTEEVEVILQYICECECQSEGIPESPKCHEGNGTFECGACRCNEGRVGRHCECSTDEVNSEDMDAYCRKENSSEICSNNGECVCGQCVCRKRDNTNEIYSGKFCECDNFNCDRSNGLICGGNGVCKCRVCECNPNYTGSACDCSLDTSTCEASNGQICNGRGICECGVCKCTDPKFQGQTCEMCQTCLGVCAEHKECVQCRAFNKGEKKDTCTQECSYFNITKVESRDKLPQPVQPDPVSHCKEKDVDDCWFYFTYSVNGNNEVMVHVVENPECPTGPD
In words: Integrin α4β1—VCAM-1 competition ELISA. The assay is classed as binding. Particulars: for IC50: read-out: ELISA a4b1 Assay IC50. As for the experimental part: Integrin α4β1—VCAM-1 Competition ELISA
The plate was incubated at 4° C. overnight. […] The plate was then incubated for 1 hour at room temperature. The plate was washed three times with wash buffer (50 mM Tris, 100 mM NaCl, 1 mM MnCl2, 0.05% Tween). To each well, 50 μl of compound diluted in assay buffer was added by transfer from a compound serial dilution plate. […] The plate was incubated at room temperature with shaking (300 rpm) for 2 hours to reach binding equilibrium. Then the plate was washed three times in wash buffer and 100 μl anti-human IgG Fc specific-HRP (Abcam, Ab97225) diluted at 1:2000 in assay buffer was added to each well. The plate was incubated at room temperature for 1 hour under agitation.

As to `CC(C)C[C@@H]1NC(=O)[C@H](Cc2c[nH]cn2)NC(=O)[C@@H]2CCCN2[C@H](C(=O)NC(C)(C)C)[C@@H](CSc2ccccc2)NC(=O)[C@H](C(C)C)NC(=O)[C@H](CC(=O)O)NC1=O` [Compound 2], the “ELISA Assay Ratio b1/b7” value in assay [1] is given as 1.697. Besides, the IC50 in assay [2] was 185 nM.
On to `CC(C)C[C@@H]1NC(=O)[C@H](CCc2ccccc2)NC(=O)[C@@H]2CCCN2[C@H](C(=O)NC(C)(C)C)[C@H](C)NC(=O)[C@H]([C@@H](C)O)NC(=O)[C@H](CC(=O)O)NC1=O` [Compound 6], for which, in assay [1], the “ELISA Assay Ratio b1/b7” value is on record as 1.9 and the IC50 is 103 nM. For the same compound, in assay [2], the concentration for half-maximal inhibition (IC50) was determined as 200 nM.
As to `CC(C)C[C@@H]1NC(=O)[C@H](CC2CCCCC2)NC(=O)[C@@H]2CCCN2[C@H](C(=O)NC(C)(C)C)[C@H](C)NC(=O)[C@H]([C@@H](C)O)NC(=O)[C@H](CC(=O)O)NC1=O` [Compound 7], in assay [1], the “ELISA Assay Ratio b1/b7” value came to 1.6 and the IC50 was determined as 117 nM. In addition, the IC50 in assay [2] turned out to be 190 nM.
The like results for `CC(C)C[C@@H]1NC(=O)[C@H](Cc2cccc3ccccc23)NC(=O)[C@@H]2CCCN2[C@H](C(=O)NC(C)(C)C)[C@H](C)NC(=O)[C@H]([C@@H](C)O)NC(=O)[C@H](CC(=O)O)NC1=O` [Compound 9] were, in that order, 1.7, 61 nM and 106 nM.
On to `CC(C)C[C@@H]1NC(=O)[C@H](Cc2ccc3ccccc3c2)NC(=O)[C@@H]2CCCN2[C@H](C(=O)NC(C)(C)C)[C@H](C)NC(=O)[C@H]([C@@H](C)O)NC(=O)[C@H](CC(=O)O)NC1=O` [Compound 10], for which, in assay [1], the “ELISA Assay Ratio b1/b7” value is 1.3 and the IC50 turned out to be 52 nM. Further, the IC50 in assay [2] amounted to 70 nM.
For `CO[C@H](C)[C@@H]1NC(=O)[C@H](CC(=O)O)NC(=O)[C@H](CC(C)C)NC(=O)[C@H](Cc2ccccc2)NC(=O)[C@@H]2CCCN2[C@H](C(=O)NC(C)(C)C)[C@H](C)NC1=O` [Compound 40], in that order: 1.9, 63 nM and 119 nM.
Take `CCO[C@H](C)[C@@H]1NC(=O)[C@H](CC(=O)O)NC(=O)[C@H](CC(C)C)NC(=O)[C@H](Cc2ccccc2)NC(=O)[C@@H]2CCCN2[C@H](C(=O)NC(C)(C)C)[C@H](C)NC1=O` [Compound 41]: in assay [2], the IC50 came to 106 nM.
Regarding `CC(C)C[C@@H]1NC(=O)[C@H](Cc2cccnc2)NC(=O)[C@@H]2C[C@@H](O)CN2[C@H](C(=O)NC(C)(C)C)[C@H](C)NC(=O)[C@H]([C@@H](C)O)NC(=O)[C@H](CC(=O)O)NC1=O` [Compound 44], the half-inhibitory concentration (IC50) in assay [2] turned out to be 188 nM.
For `CC(C)C[C@@H]1NC(=O)[C@H](Cc2ccccc2)NC(=O)[C@@H]2C[C@@H](F)CN2[C@H](C(=O)NC(C)(C)C)[C@H](C)NC(=O)[C@H]([C@@H](C)O)NC(=O)[C@H](CC(=O)O)NC1=O` [Compound 45], in assay [1], the “ELISA Assay Ratio b1/b7” value is given as 3.2 and the 50% inhibitory concentration (IC50) was 74 nM. In assay [2], the IC50 was found to be 238 nM.
For `CC(C)C[C@@H]1NC(=O)[C@H](Cc2ccc(-c3ccccc3)cc2)NC(=O)[C@@H]2C[C@@H](F)CN2[C@H](C(=O)NC(C)(C)C)[C@H](C)NC(=O)[C@H]([C@@H](C)O)NC(=O)[C@H](CC(=O)O)NC1=O` [Compound 46], in that order: 2.4, 106 nM and 258 nM.
Consider `CC(C)C[C@@H]1NC(=O)[C@H]2CCCCN2C(=O)[C@@H]2CCCN2[C@H](C(=O)NC(C)(C)C)[C@H](C)NC(=O)[C@H]([C@@H](C)O)NC(=O)[C@H](CC(=O)O)NC1=O` [Compound 51], for which, in assay [1], the “ELISA Assay Ratio b1/b7” value is 3.3 and the half-inhibitory concentration (IC50) came to 31 nM. Also, the IC50 in assay [2] turned out to be 102 nM.
For the compound `CC(C)C[C@@H]1NC(=O)[C@H](Cc2ccc(O)cc2)NC(=O)[C@@H]2CCCN2[C@H](C(=O)NC(C)(C)C)[C@H](C)NC(=O)[C@H](C(C)(C)S)NC(=O)[C@H](CC(=O)O)NC1=O` [Compound 55], in assay [1], the “ELISA Assay Ratio b1/b7” value was 1.1 and the IC50 was 113 nM. Also, the IC50 in assay [2] worked out at 119 nM.
For `CC(C)C[C@@H]1NC(=O)[C@@H]2C[C@@H](OCc3ccccc3)CN2C(=O)[C@@H]2CCCN2[C@H](C(=O)NC(C)(C)C)[C@H](C)NC(=O)[C@H]([C@@H](C)O)NC(=O)[C@H](CC(=O)O)NC1=O` [Compound 57], in that order: 2.5, 59 nM and 148 nM.
The like results for `CC(C)C[C@@H]1NC(=O)[C@@H](CCCN(C)C)NC(=O)[C@@H]2CCCN2[C@H](C(=O)NC(C)(C)C)[C@H](C)NC(=O)[C@H]([C@@H](C)O)NC(=O)[C@H](CC(=O)O)NC1=O` [Compound 83] were, in that order, 6.9, 179 nM and 1230 nM.
The like results for `CC(C)C[C@@H]1NC(=O)C2(CCCC2)NC(=O)[C@@H]2CCCN2[C@H](C(=O)NC(C)(C)C)[C@H](C)NC(=O)[C@H]([C@@H](C)O)NC(=O)[C@H](CC(=O)O)NC1=O` [Compound 88] were, in that order, 14.9, 11 nM and 166 nM.
As for `CC(C)C[C@@H]1NC(=O)C2(Cc3ccccc3C2)NC(=O)[C@@H]2CCCN2[C@H](C(=O)NC(C)(C)C)[C@H](C)NC(=O)[C@H]([C@@H](C)O)NC(=O)[C@H](CC(=O)O)NC1=O` [Compound 89], the “ELISA Assay Ratio b1/b7” value in assay [1] is 14.4. Moreover, the figures for the IC50 in assay [1] and in assay [2] were 16 nM and 232 nM, respectively.
For `CC(C)C[C@@H]1NC(=O)[C@H]2c3ccccc3CCN2C(=O)[C@@H]2CCCN2[C@H](C(=O)NC(C)(C)C)[C@H](C)NC(=O)[C@H]([C@@H](C)O)NC(=O)[C@H](CC(=O)O)NC1=O` [Compound 98], in assay [2], the IC50 worked out at 58 nM.
On the same count and under the same terms, under `CC(C)C[C@@H]1NC(=O)[C@H]2CCCCN2C(=O)[C@H](Cc2ccc(O)cc2)N(C)C(=O)[C@@H]2CCCN2[C@H](C(=O)NC(C)(C)C)[C@H](C)NC(=O)[C@H]([C@@H](C)O)NC(=O)[C@H](CC(=O)O)NC1=O` [Compound 148] stands 105 nM; under `CC(C)C[C@@H]1NC(=O)C[C@H](CCCCN)NC(=O)[C@@H](CCCNC(=N)N)NC(=O)[C@@H]2CCCN2[C@H](C(=O)NC(C)(C)C)[C@H](C)NC(=O)[C@H]([C@@H](C)O)NC(=O)[C@H](CC(=O)O)NC1=O` [Compound 217], 1090 nM; under `CC(C)C[C@@H]1NC(=O)[C@@H]2CCN2C(=O)C[C@H](CCCCN)NC(=O)[C@@H]2CCCN2[C@H](C(=O)NC(C)(C)C)[C@H](C)NC(=O)[C@H]([C@@H](C)O)NC(=O)[C@H](CC(=O)O)NC1=O` [Compound 319], 309 nM.
For the compound `CC(C)C[C@@H]1NC(=O)C[C@H](CCCCN)N(C)C(=O)[C@H](CCCCNC(=O)c2cc(C(=O)O)cc(C(=O)NCCCC[C@@H]3NC(=O)[C@@H]4CCCN4[C@H](C(=O)NC(C)(C)C)[C@H](C)NC(=O)[C@H]([C@@H](C)O)NC(=O)[C@H](CC(=O)O)NC(=O)[C@H](CC(C)C)NC(=O)C[C@H](CCCCN)N(C)C3=O)c2)NC(=O)[C@@H]2CCCN2[C@H](C(=O)NC(C)(C)C)[C@H](C)NC(=O)[C@H]([C@@H](C)O)NC(=O)[C@H](CC(=O)O)NC1=O` [Compound 537], in assay [2] (ratio of ELISA IC50s, α4β1 over α4β7), the “ELISA Assay Ratio β1/β7” value is recorded as 0.4.
